Test results from article PMC6968775, “Assessment of contribution of BCRP to intestinal absorption of various drugs using portal‐systemic blood concentration difference model in mice” (Pharmacology Research & Perspectives, 2020).
Several values for one entry are separate records, joined by “and”; a condition that tells them apart may be missing. Equal entries are not always repeated.

Experiments:
[1] = Blood/plasma concentration ratio (R b) in fresh whole blood; assay type: in vitro ADME, FVB mice; settings: fresh whole blood, FVB mouse whole blood, 37°C
Method: Similarly, the model compounds were added to plasma, and reference blood samples were obtained according to the same procedure. These concentrations of drugs in each sample were analyzed using HPLC (C B and C P, respectively). R b value was calculated by dividing C B by C P.

[2] = tested on: BCRP; settings: Caco‐2 permeability study; ref (10); Kawahara et al, manuscript in revision; cited from earlier work
[3] = Pharmacokinetics after iv and oral administration, P‐S difference method, wild‐type mice; assay type: in vivo
Method: (§1) Male Mdr1a/1b(−/−) and Bcrp(−/−) mice, and WT mice of the same genetic background (FVB) were obtained from Taconic Farms (Germantown, NY, USA). […] Food and water were available ad libitum. All experiments were carried out in accordance with the principles and procedures outlined in the National Institutes of Health Guide for the Care and Use of Laboratory.
(§2) All the mice were fasted overnight with free access to tap water. In the intravenous administration studies, model compounds were administered via the tail vein at doses of 1 mg/kg (n = 3). Following administration, blood samples were collected from the abdominal vein of the anesthetized mice at 0.083, 0.17, 0.5, 1, 2, 4, and 8 hours. […] Following administration, blood samples were taken from the portal and abdominal veins of the anesthetized mice at 0.083, 0.17, 0.5, 1, 2, 4, and 8 hours. The plasma samples were separated by centrifugation at 14 000g for 10 minutes at 4°C and stored at −30°C until analysis.
(§3) After organic layer was evaporated at 60°C, the resultant residues were dissolved in a mobile phase. For the determination of topotecan and sulfasalazine, plasma samples were mixed with acetonitrile, centrifuged at 750 g for 10 minutes at 4°C, and the supernatants were collected. After the evaporation of the supernatants, the residues were dissolved in a mobile phase, and acidified with phosphoric acid for topotecan. All drugs were analyzed by HPLC system (Shimadzu LC‐10AS pump, Shimadzu SIL‐10A autosampler) equipped with a reverse‐phase column (COSMOSIL 5C18‐AR‐II, 3.5‐μm […], 4.6 × 150 mm).
(§4) Elimination rate constant (k e) was determined by the least squares regression analysis of plasma concentration vs time curve. Elimination half‐life (t 1/2) was calculated using Eq.1:(1) t1/2=ln2/ke
(§5) Area under plasma concentration‐time curve (AUC) and area under the first moment curve (AUMC) from time 0 to infinity were calculated by trapezoidal rule.
(§6) Absorption rate constant (k a) after oral administration was calculated by the nonlinear least squares fitting with program MULTI.12
(§7) BA was calculated by Eq.5:(7) BA=AUCoral/AUCiv×Doseiv/Doseoral×100 where AUCoral is AUC after oral administration. Doseiv and Doseoral are administered dose in the intravenous and oral administration study, respectively.
(§8) Hepatic availability (F h) was calculated by Eq.6:(8) Fh=F/Fa×Fg

[4] = tested on: P‐gp; settings: Caco‐2 permeability study; unpublished data; ref Fujita et al, manuscript in preparation; cited from earlier work
[5] = tested on: P‐gp; settings: in vivo (mice); calculated from F a F g in WT, Bcrp(−/−) and Mdr1a/1b(−/−) mice (Eq. 12)
[6] = Pharmacokinetics after iv and oral administration, P‐S difference method, Mdr1a/1b(−/−) mice; assay type: in vivo
Method: as §1, §2, §3, §4, §5, §6, §7, §8

[7] = tested on: BCRP
[8] = Pharmacokinetics after iv and oral administration, P‐S difference method, Bcrp(−/−) mice; assay type: in vivo
Method: as §1, §2, §3, §4, §5, §6, §7, §8

[9] = wild‐type mice, p.o. (ciprofloxacin 1, nitrofurantoin 2, topotecan 1, sulfasalazine 5 mg/kg)
[10] = Mdr1a/1b(−/−) mice, p.o. (ciprofloxacin 1, nitrofurantoin 2, topotecan 1, sulfasalazine 5 mg/kg)
[11] = male, Mdr1a/1b(−/−) (FVB background), mouse, systemic plasma (abdominal vein), po
[12] = Bcrp(−/−) mice, p.o. (ciprofloxacin 1, nitrofurantoin 2, topotecan 1, sulfasalazine 5 mg/kg)

For O=C1CN(/N=C/c2ccc([N+](=O)[O-])o2)C(=O)N1 [nitrofurantoin, Nitrofurantoin], the blood plasma ratio at 15 min, 1 µg/mL [1] is listed as 1.18 ± 0.1, the “AQbcrp in vitro (Caco‐2)” value [2] is listed as 0.37 and the “k a, wt” value ([3]; Table 5 summary, WT mice, oral administration) is listed as 5.80. For the same molecule, the “(F a F g) wt” value ([3]; as fraction, WT mice, oral administration) was 0.64, the clearance ([3]; male, FVB (wild-type), mouse, plasma (systemic, abdominal vein), wild‐type mice, iv 1 mg/kg, read-out: CL tot (converted)) was 38 mL/min/kg and the Vd ([3]; male, FVB (wild-type), mouse, plasma (systemic, abdominal vein), wild‐type mice, iv 1 mg/kg, read-out: Vdss) was 1.94 L/kg. It also gave a half-life ([3]; male, FVB (wild-type), mouse, plasma, iv, 1 mg/kg, wild‐type mice, iv 1 mg/kg) of 172 min, an AUC(0-inf) ([3]; male, FVB (wild-type), mouse, plasma, iv, 1 mg/kg, wild‐type mice, iv 1 mg/kg, read-out: AUC 0→∞) of 1.84 µM·h and a Tmax ([3]; male, FVB (wild-type), mouse, portal vein plasma, po) of 10.2 min. For the same molecule, the AUC(0-inf) ([3]; male, FVB (wild-type), mouse, portal vein plasma, po, wild‐type mice, p.o. (ciprofloxacin 1, nitrofurantoin 2, topotecan 1, sulfasalazine 5 mg/kg), portal vein (pv) plasma, read-out: AUC 0→∞ (AUCpv)) was 2.54 µM·h, the Tmax ([3]; male, FVB (wild-type), mouse, systemic plasma (abdominal vein), po) was 10.2 min and the half-life ([3]; male, FVB (wild-type), mouse, systemic plasma (abdominal vein), po, wild‐type mice, p.o. (ciprofloxacin 1, nitrofurantoin 2, topotecan 1, sulfasalazine 5 mg/kg), systemic (sys) plasma) was 55.8 min. For the same molecule, the AUC(0-inf) ([3]; male, FVB (wild-type), mouse, systemic plasma (abdominal vein), po, wild‐type mice, p.o. (ciprofloxacin 1, nitrofurantoin 2, topotecan 1, sulfasalazine 5 mg/kg), systemic (sys) plasma, read-out: AUC 0→∞ (AUCsys)) was 1.83 µM·h, the F h [3, 9] was 78.3% and the k a [3, 9] was 5.8 h⁻¹ and 5.80 h⁻¹. For the same molecule, the BA ([3]; wild‐type mice, p.o. (ciprofloxacin 1, nitrofurantoin 2, topotecan 1, sulfasalazine 5 mg/kg) vs iv 1 mg/kg) was 49.9%, the “F a F g” value ([3]; wild‐type mice, p.o. (ciprofloxacin 1, nitrofurantoin 2, topotecan 1, sulfasalazine 5 mg/kg), P‐S difference method) was 63.7% and the “AUC 0→∞ (AUCpv)” value ([3]; wild‐type mice, p.o. (ciprofloxacin 1, nitrofurantoin 2, topotecan 1, sulfasalazine 5 mg/kg), portal vein (pv) plasma) was 2.55 µM·h. For the same molecule, the “AUC 0→∞ (AUCsys)” value ([3]; wild‐type mice, p.o. (ciprofloxacin 1, nitrofurantoin 2, topotecan 1, sulfasalazine 5 mg/kg), systemic (sys) plasma) was 1.84 µM·h, the “AQp‐gp in vitro (Caco‐2)” value [4] was 0.09 and the “R P‐gp (rate of P‐gp contribution)” value [5] was 0.13. The F h [6, 10] was 79.9%, the k a [6, 10] was 7.2 h⁻¹ and 7.20 h⁻¹ and the BA ([6]; Mdr1a/1b(−/−) mice, p.o. (ciprofloxacin 1, nitrofurantoin 2, topotecan 1, sulfasalazine 5 mg/kg) vs iv 1 mg/kg) was 60.0%. The “F a F g” value ([6]; Mdr1a/1b(−/−) mice, p.o. (ciprofloxacin 1, nitrofurantoin 2, topotecan 1, sulfasalazine 5 mg/kg), P‐S difference method) was 75.2%, the “AUC 0→∞ (AUCpv)” value ([6]; Mdr1a/1b(−/−) mice, p.o. (ciprofloxacin 1, nitrofurantoin 2, topotecan 1, sulfasalazine 5 mg/kg), portal vein (pv) plasma) was 3.18 µM·h and the “AUC 0→∞ (AUCsys)” value ([6]; Mdr1a/1b(−/−) mice, p.o. (ciprofloxacin 1, nitrofurantoin 2, topotecan 1, sulfasalazine 5 mg/kg), systemic (sys) plasma) was 2.35 µM·h. The “k a, P‐gp” value ([6]; Table 5 summary, Mdr1a/1b(−/−) mice, oral administration) was 7.20, the “(F a F g)P‐gp” value ([6]; as fraction, Mdr1a/1b(−/−) mice, oral administration) was 0.75 and the clearance ([6]; male, FVB Mdr1a/1b(−/−), mouse, plasma (systemic, abdominal vein), Mdr1a/1b(−/−) mice, iv 1 mg/kg, read-out: CL tot (converted)) was 35.8 mL/min/kg. It also gave a Vd ([6]; male, FVB Mdr1a/1b(−/−), mouse, plasma (systemic, abdominal vein), Mdr1a/1b(−/−) mice, iv 1 mg/kg, read-out: Vdss) of 1.36 L/kg, an AUC(0-inf) ([6]; male, FVB Mdr1a/1b(−/−), mouse, portal vein plasma, po, Mdr1a/1b(−/−) mice, p.o. (ciprofloxacin 1, nitrofurantoin 2, topotecan 1, sulfasalazine 5 mg/kg), portal vein (pv) plasma, read-out: AUC 0→∞ (AUCpv)) of 3.18 µM·h and an AUC(0-inf) ([6]; male, FVB Mdr1a/1b(−/−), mouse, systemic plasma (abdominal vein), po, Mdr1a/1b(−/−) mice, p.o. (ciprofloxacin 1, nitrofurantoin 2, topotecan 1, sulfasalazine 5 mg/kg), systemic (sys) plasma, read-out: AUC 0→∞ (AUCsys)) of 2.35 µM·h. For the same molecule, the AUC(0-inf) ([6]; male, Mdr1a/1b(−/−) (FVB background), mouse, plasma, iv, 1 mg/kg, Mdr1a/1b(−/−) mice, iv 1 mg/kg, read-out: AUC 0→∞) was 1.95 µM·h, the half-life ([6]; male, Mdr1a/1b(−/−) (FVB background), mouse, plasma, Mdr1a/1b(−/−) mice, iv 1 mg/kg) was 70.2 min and the Tmax ([6]; male, Mdr1a/1b(−/−) (FVB background), mouse, portal vein plasma, po) was 10.2 min. The Tmax [6, 11] was 10.2 min, the half-life [6, 11] was 73.2 min and the “AUC pv and AUC sys after oral administration, Mdr1a/1b(−/−) mice vs WT mice” value ([6]; oral administration) was “approximately 1.5 fold”. The “AQ bcrp (in vivo)” value ([7]; calculated from k a in WT, Bcrp(−/−) and Mdr1a/1b(−/−) mice (Eq. 9)) was 0.13, the “R bcrp (rate of BCRP contribution)” value ([7]; in vivo (mice), calculated from F a F g in WT, Bcrp(−/−) and Mdr1a/1b(−/−) mice (Eq. 11)) was 0.15 and the F h [8, 12] was 90.0%. For the same molecule, the k a [8, 12] was 6.9 h⁻¹ and 6.89 h⁻¹, the BA ([8]; Bcrp(−/−) mice, p.o. (ciprofloxacin 1, nitrofurantoin 2, topotecan 1, sulfasalazine 5 mg/kg) vs iv 1 mg/kg) was 69.4% and the “F a F g” value ([8]; Bcrp(−/−) mice, p.o. (ciprofloxacin 1, nitrofurantoin 2, topotecan 1, sulfasalazine 5 mg/kg), P‐S difference method) was 77.1%. For the same molecule, the “AUC 0→∞ (AUCpv)” value ([8]; Bcrp(−/−) mice, p.o. (ciprofloxacin 1, nitrofurantoin 2, topotecan 1, sulfasalazine 5 mg/kg), portal vein (pv) plasma) was 3.41 µM·h, the “AUC 0→∞ (AUCsys)” value ([8]; Bcrp(−/−) mice, p.o. (ciprofloxacin 1, nitrofurantoin 2, topotecan 1, sulfasalazine 5 mg/kg), systemic (sys) plasma) was 2.56 µM·h and the “k a, bcrp” value ([8]; Table 5 summary, Bcrp(−/−) mice, oral administration) was 6.89. For the same molecule, the “(F a F g)bcrp” value ([8]; as fraction, Bcrp(−/−) mice, oral administration) was 0.77, the half-life ([8]; male, Bcrp(−/−) (FVB background), mouse, plasma, iv, 1 mg/kg, Bcrp(−/−) mice, iv 1 mg/kg) was 84.6 min and the Tmax ([8]; male, Bcrp(−/−) (FVB background), mouse, portal vein plasma, po) was 10.2 min. It also gave a Tmax ([8]; male, Bcrp(−/−) (FVB background), mouse, systemic plasma (abdominal vein), po) of 10.2 min, an AUC(0-inf) ([8]; male, FVB Bcrp(−/−), mouse, plasma (systemic, abdominal vein), iv, 1 mg/kg, Bcrp(−/−) mice, iv 1 mg/kg, read-out: AUC 0→∞) of 1.84 µM·h and a clearance ([8]; male, FVB Bcrp(−/−), mouse, plasma (systemic, abdominal vein), Bcrp(−/−) mice, iv 1 mg/kg, read-out: CL tot (converted)) of 38 mL/min/kg. The Vd ([8]; male, FVB Bcrp(−/−), mouse, plasma (systemic, abdominal vein), Bcrp(−/−) mice, iv 1 mg/kg, read-out: Vdss) was 1.45 L/kg, the AUC(0-inf) ([8]; male, FVB Bcrp(−/−), mouse, portal vein plasma, po, Bcrp(−/−) mice, p.o. (ciprofloxacin 1, nitrofurantoin 2, topotecan 1, sulfasalazine 5 mg/kg), portal vein (pv) plasma, read-out: AUC 0→∞ (AUCpv)) was 3.41 µM·h and the half-life ([8]; male, FVB Bcrp(−/−), mouse, systemic plasma (abdominal vein), po, Bcrp(−/−) mice, p.o. (ciprofloxacin 1, nitrofurantoin 2, topotecan 1, sulfasalazine 5 mg/kg), systemic (sys) plasma) was 75 min. For the same molecule, the AUC(0-inf) ([8]; male, FVB Bcrp(−/−), mouse, systemic plasma (abdominal vein), po, Bcrp(−/−) mice, p.o. (ciprofloxacin 1, nitrofurantoin 2, topotecan 1, sulfasalazine 5 mg/kg), systemic (sys) plasma, read-out: AUC 0→∞ (AUCsys)) was 2.56 µM·h and the “AUC pv and AUC sys after oral administration, Bcrp(−/−) mice vs WT mice” value ([8]; oral administration) was “approximately 1.5 fold”.
